Source: paper PMC6152638, “Anti-Inflammatory Phenolic Acid Esters from the Roots and Rhizomes of Notopterygium incisium and Their Permeability in the Human Caco-2 Monolayer Cell Model” (Molecules : A Journal of Synthetic Chemistry and Natural …, 2017)
Entries after “also recorded” stand apart in the source; their conditions may differ. Read-outs that look alike come from different tables or passages of the source.

Key:
[1] = system: NO production in LPS-activated RAW264.7 macrophages; assay: NO inhibitory assay in LPS-activated RAW264.7 macrophages (Griess); assay type: cell-based, murine; details: Mus musculus, read-out: IC50 on NO production
Description: Briefly, RAW 264.7 cells were maintained in DMEM containing 10% FBS, in a constant humidity atmosphere of 5% CO2 and 95% air at 37 °C, seeded in 96-well culture plates (Costar® #3599, Cambridge, MA, USA) at a density of 3 × 10^4 cells/well for 12 h, and then stimulated with LPS (1 μg/mL) and treated with various concentrations of assayed compounds for 24 h. After that, the cell culture supernatant (100 μL) was collected to react with Griess reagent (100 μL) for 15 min at room temperature. The nitrite in culture medium was measured as an indicator of NO production. NaNO2 was used to generate a standard curve, and NO production was determined by measuring the optical density at 540 nm in comparison with the standard curve. […] The experiments were performed in parallel three times, and L-NIL was used as a positive control. Cell viability (>95%) was assessed by using an MTT assay. The IC50 values were calculated by the software SPSS 16.0 (SPSS Inc., Chicago, IL, USA).

[2] = Stability of the phenolic acid esters in HPLC method validation (Table S1); assay type: physicochemical
Description: Quantitative analysis of nine phenolic acid esters was performed on a Dionex Ultimate™ 3000 UHPLC system (Dionex Corp., Sunnyvale, CA, USA), comprised of Ultimate 3000 pump, autosampler, column compartment, and diode array detector. The signals were acquired and processed applying a Chromeleon version 6.80 software (Dionex Corp., Sunnyvale, CA, USA). HPLC separation was performed on a C18 Luna® column (250 mm × 4.60 mm i.d., 5 μm) (Phenomenex, Torrance, CA, USA). […] The detection wavelength was set at 305 nm for 2, 270 nm for 3, 259 nm for 4, 325 nm for 1 and 5–9. Column oven was maintained at 25 °C, and the injected volume was 20 μL. The calibration curves were constructed by plotting peak area (y, mAU × min) versus concentration (x, µM). The linear equations across 1–75 µM were y = 0.0087x − 0.0041 with r^2 of 0.9994 for 1, y = 0.0066x − 0.0013 with r^2 of 0.9999 for 2, y = 0.0667x − 0.0269 with r^2 of 0.9997 for 4, y = 0.0917x + 0.0040 with r^2 of 0.9998 for 5, y = 0.0614x − 0.0038 with r^2 of 0.9999 for 6, y = 0.0623x + 0.0051 with r^2 of 0.9999 for 8, and y = 0.0639x − 0.0464 with r^2 of 0.9978 for 9. […] Quantification was carried out by peak area measurements in comparison with the calibration curves.

[3] = Transport in the human intestinal Caco-2 cell monolayer model; assay type: in vitro ADME; details: human; for Papp B→A at 90 min, 50 µM / efflux ratio at 90 min, 50 µM: Caco-2; for Papp B→A at 90 min, 50 µM: basolateral to apical; for efflux ratio at 90 min, 50 µM: ratio of Papp BL→AP to Papp AP→BL
Description: (§1) For confluence and differentiation, cells were seeded at a density of 1 × 10^5 cells/cm^2 into 12-well Transwell plates (insert diameter 12 mm, pore size 3.0 μm, membrane growth area 1.12 cm^2, Costar® #3402) and were allowed to grow for 21 days before the permeation experiment. On Day 21, the monolayers with TEER values >500 Ω·cm^2 were qualified for the transport experiment. The transport study was initiated by the careful removal of the culture medium from AP and BL side of the inserts. Caco-2 monolayers were rinsed twice with pre-warmed HBSS and were incubated by pre-warmed HBSS for 30 min at 37 °C. Stock solutions of test phenolic acid esters were prepared in DMSO and diluted to 50 µM with HBSS. […] The assayed solutions (50 µM) were added to the AP side (0.5 mL, for absorption transport) or BL side (1.5 mL, for efflux transport) of the inserts, while the receiving chamber contained the corresponding volume of HBSS. Incubation was performed at 37 °C for 90 min, with shaking at 50 rpm. Samples were collected from the inserts, then frozen, lyophilized, redissolved in MeOH, and injected into HPLC system for quantitative analysis.
(§2) The Papp values were calculated as the following equation:Papp = (dQ/dt) × (1/A) × (1/C0) (cm/s)(1) where dQ/dt is the rate of the appearance of the test compound on the receiver compartment (μmol/s), C0 is the initial test compound concentration on the donor compartment (μmol/mL), and A is the surface area of Caco-2 monolayer (cm^2).

[4] = system: Caco-2 cell monolayer; assay: as above; assay type: in vitro ADME; details: for absorption assignment: assigned from Papp AP→BL against propranolol and atenolol; for amount in the receiving chambers: HPLC quantification after transport
Description: as §1, §2

[5] = system: NO production in LPS-stimulated RAW264.7 cells; parameters: method as in PMID 28333094; details: cited from earlier work
[6] = system: RAW264.7 cells; assay: MTT cytotoxicity assay in RAW264.7 cells; details: viability less than 95% of control considered toxic
Description: The cell viability less than 95% of control was considered toxic.
Cell viability (>95%) was assessed by using an MTT assay.

[7] = RAW264.7, LPS 1 μg/mL, 24 h, n = 3
[8] = Caco-2, apical to basolateral, 50 µM, incubation up to 90 min, n = 4
[9] = Caco-2, values as stated in text
[10] = 50 µM, incubation up to 90 min, n = 4

Compound	IC50 [1, 7] [µM]	Stability ([2]; QC 5 μM) [%]	Stability ([2]; QC 25 μM) [%]	Stability ([2]; QC 50 μM) [%]	Papp A→B at 90 min, 50 µM [3, 8] [×10⁻⁶ cm/s]	Papp A→B at 90 min, 50 µM [3, 9] [×10⁻⁶ cm/s]	Papp B→A at 90 min, 50 µM [3, 10] [×10⁻⁶ cm/s]	efflux ratio at 90 min, 50 µM [3]	IC50 ([1]; RAW264.7, 24 h) [µM]	amount in the receiving chambers [4]	absorption assignment [4]	IC50 [5] [µM]	cytotoxicity (MTT) ([6]; 0.78125–25 μM)	cytotoxicity (MTT) ([6]; 1.5625–50 μM)	cytotoxicity (MTT) ([6]; 3.125–100 μM)	cytotoxicity (MTT) ([6]; 0.25 to 8 μM)
O=C(OCc1ccccc1)c1ccccc1O [Compound 2, benzylsalicylate]	53.7 ± 4.13	98.84±2.09	94.57±1.85	97.25±2.09	18 ± 1.63	> 10	13.4 ± 0.63				good absorption; also recorded: well-absorbed					
COc1cc(/C=C/C(=O)OCC(O)COC(=O)/C=C/c2ccc(O)c(OC)c2)ccc1O [1,3-O-diferuloylglycerol]												12 ± 1.07				
CC/C(C)=C/CCOC(=O)/C=C/c1ccc(O)c(OC)c1 [Compound 1, 4-methyl-3-trans-hexenylferulate]	1.01 ± 0.08	93.56±1.02	95.65±0.56	92.25±1.63	0.5 ± 0.12	< 1	0.62 ± 0.12	1.24			poorly absorbed		no toxicity			
COc1cc(/C=C/C(=O)OC2CC3CCC2(C)C3(C)C)ccc1O (stereo not drawn) [Compound 5, (−)-bornylferulate]	4.63 ± 1.73	96.29±0.99	94.56±0.96	95.85±1.01	0.08 ± 0.02	< 0.1	0.13 ± 0.02	1.69			poorly absorbed; also recorded: hardly permeate		no toxicity			
COc1cc(/C=C/C(=O)OC(C)C)ccc1O [Compound 6, isopropylferulate]	12.6 ± 2.8	95.08±1.56	102.02±1.96	102.05±1.39	17.6 ± 2.27	> 10	13.8 ± 2.74	0.79			good absorption; also recorded: well-absorbed			no toxicity		
CC1(C)C2CCC1(C)C(OC(=O)C=Cc1ccccc1)C2 (stereo not drawn) [Compound 3, bornylcinnamate]	70.5 ± 25.9				< 0.05	< 0.1	< 0.02			below the lower limit of detection	poorly absorbed; also recorded: hardly permeate				no toxicity	
COc1cc(/C=C/C(=O)OCC(CO)OC(=O)/C=C/c2ccc(O)cc2)ccc1O (stereo not drawn) [1-O-feruloyl-2-O-p-coumaroylglycerol]												9.12 ± 0.72				
COc1ccc(C(=O)OCCc2ccc(O)cc2)cc1 [Compound 4, p-hydroxyphenethyl anisate]	11.1 ± 1.43	92.28±2.07	100.74±2.15	95.85±2.01	0.36 ± 0.04	< 1	0.05 ± 0.01	0.15			poorly absorbed				no toxicity	

The next lines start with results.

IC50 [1, 7] [µM]	Stability ([2]; QC 5 μM) [%]	Stability ([2]; QC 25 μM) [%]	Stability ([2]; QC 50 μM) [%]	Papp A→B at 90 min, 50 µM [3, 8] [×10⁻⁶ cm/s]	Papp A→B at 90 min, 50 µM [3, 9] [×10⁻⁶ cm/s]	Papp B→A at 90 min, 50 µM [3, 10] [×10⁻⁶ cm/s]	efflux ratio at 90 min, 50 µM [3]	IC50 ([1]; RAW264.7, 24 h) [µM]	amount in the receiving chambers [4]	Compound	absorption assignment [4]	IC50 [5] [µM]	cytotoxicity (MTT) ([6]; 0.78125–25 μM)	cytotoxicity (MTT) ([6]; 1.5625–50 μM)	cytotoxicity (MTT) ([6]; 3.125–100 μM)	cytotoxicity (MTT) ([6]; 0.25 to 8 μM)
67.9 ± 0.91										COc1cc(/C=C/C(=O)O)ccc1O [Compound 10, ferulic acid, reference compound]						
								9.37 ± 1.57		CC(=N)NCCCC[C@H](N)C(=O)O [L-NIL, reference compound]						
> 200										O=C(O)/C=C/c1ccccc1 [Compound 11, cinnamic acid, reference compound]						
2.73 ± 0.58	92.26±2.89	93.71±1.88	101.99±1.32	0.66 ± 0.16	< 1	0.7 ± 0.18	1.06			COc1cc(/C=C/C(=O)OCCc2ccccc2)ccc1O [Compound 9, phenethylferulate]	poorly absorbed			no toxicity		
				< 0.02	< 0.1	< 0.01			below the lower limit of detection	CCCCCCCCCCCCCCCCCCCCCCCCCCCCCCOC(=O)/C=C/c1ccc(O)c(OC)c1 [Compound 7, trans-triacontyl-4-hydroxy-3-methoxycinnamate]	poorly absorbed; also recorded: hardly permeate					had cytotoxicity
2.47 ± 0.64	93.28±2.17	95.45±1.12	102.58±1.54	2.21 ± 0.07	~1	2.55 ± 0.44	1.15			COc1ccc(CCOC(=O)/C=C/c2ccc(O)c(OC)c2)cc1 [Compound 8, 4-methoxyphenethylferulate]	moderately absorbed			no toxicity		
					22.9					CC(C)NCC(O)COc1cccc2ccccc12 (stereo not drawn) [propranolol, reference compound]						
